{"source": "patent US9241889B2", "about": "“Oral compositions comprising sodium dodecylbenzene sulfonate” (Glaxo Group Limited, priority 2010, dated 2016)", "key": {"[1]": {"test": "Hydroxyapatite Stain Prevention Model (HASP)", "method": "A 96 well hydroxyapatite coated microtitre plate was treated with whole unstimulated human saliva (100 μl per well) at 37° C./100 rpm. After 1 hour the plate was washed to remove any unbound components and 200 μl of each test active was transferred to the plate in columns along with a positive and negative control (5% sodium tripolyphosphate, STP), and water respectively) and the plate returned to the incubator. After 10 minutes the plate was once again washed and the plate was stained by the application of 200 μl of fresh tea solution (1 teabag (PG tips)/50 ml of deionised water). After an additional 10 minutes of incubation, the tea was removed and the plate washed. Finally, the bound stain was desorbed by the application of 200 μl of 2.5M citric acid per well. After a minimum of 12 hours, 180 μl of the tea/citric acid solutions were transferred to a clean, normal (not HA coated) 96 well microtitre plate and the absorption measured 405 nm."}, "[2]": {"test": "Hydroxyapatite Tea Stain Removal Model (HATSR)", "method": "A 96 well hydroxyapatite coated microtitre plate was treated with 100 μl aliquots of tea per well (1 teabag (PG Tips)/50 ml of deionised water) and the plate incubated at 37° C./100 rpm. After 10 minutes the plate was washed with deionised water and dried at 37° C. overnight. The test actives (200 μl per well) were added into each column of the tea coated plate along with the positive and negative control (5% sodium tripolyphosphate (STP) and water respectively) and the plate returned to the incubator. After 10 minutes the plate was once again washed and the bound stain was desorbed by the application of 200 μl of 2.5M citric acid per well. After a minimum of 12 hours, 180 μl of the tea/citric acid solutions were transferred to a clean, normal (not HA coated) 96 well microtitre plate and the absorption measured 405 nm."}}}
{"substance": "sodium dodecylbenzene sulphonate [SDDBS]", "values": [{"measurement": "stain prevention versus water negative control", "setting": "[1]; 0.1% SDDBS, pH 7, FIG. 1", "result": "only directionally superior"}, {"measurement": "stain prevention (uptake of dietary stain onto HASP model oral surfaces)", "setting": "[1]; SDDBS solutions 0.1%-10%, pH 7, n=8, FIG. 1", "result": "prevents the uptake of dietary stain"}, {"measurement": "stain prevention versus positive control 5% STP", "setting": "[1]; all SDDBS concentrations 0.1%-10%, pH 7, FIG. 1", "result": "none were as effective as the positive control STP"}, {"measurement": "stain prevention versus water negative control", "setting": "[1]; all SDDBS concentrations except 0.1%, pH 7, FIG. 1", "result": "statistically superior to the water negative control"}, {"measurement": "stain prevention versus SLS", "setting": "[1]; equivalent concentration (1% surfactant), pH 7, n=8, FIG. 3", "result": "statistically superior to sodium lauryl sulphate (SLS)"}, {"measurement": "stain removal", "setting": "[2]; SDDBS solutions 0.1%-10%, pH 7, n=8, FIG. 2", "result": "removes stain in a dose dependent manner"}, {"measurement": "stain removal versus water negative control", "setting": "[2]; all SDDBS concentrations except 0.125%, pH 7, FIG. 2", "result": "statistically superior to the water negative control"}, {"measurement": "stain removal versus positive control 5% STP", "setting": "[2]; all SDDBS concentrations, pH 7, FIG. 2", "result": "none were as effective as the positive control STP"}]}
